Where a SMILES comes first, the peptide text is derived from it. The star is where a group is joined. Cbz = O=C(OCc1ccccc1)*
assay: Inhibition of NF-kappaB activation

SMILES | IC50
Clc1ccc(CNc2ncnc3ccccc23)cc1 | 1.83 µM
O=[N+]([O-])c1ccc2c(NCCc3ccc(Cl)cc3)ncnc2c1 | 1.77 µM
Clc1ccc(CCNc2ncnc3ccccc23)cc1 | 0.63 µM
O=[N+]([O-])c1cc2c(NCCc3ccc(Cl)cc3)ncnc2cc1Cl | 9.06 µM
O=C1c2ccc(O)cc2C(=O)N1c1c(Br)cccc1Br | 0.43 µM
Cc1ccc(S(=O)(=O)Nc2cccc3cccnc23)c([N+](=O)[O-])c1 | 2.1 µM
COc1cc(NS(=O)(=O)c2ccc(C)cc2N)c2ncccc2c1 | 1 µM
Nc1ccccc1S(=O)(=O)Nc1cccc2cccnc12 | 2 µM
Cc1ccc2cccc(NS(=O)(=O)c3ccccc3[N+](=O)[O-])c2n1 | 3.8 µM
Cc1ccc2cccc(NS(=O)(=O)c3ccc(Cl)s3)c2n1 | 1 µM
Cc1ccc2cccc(NS(=O)(=O)c3ccc(Br)s3)c2n1 | 1.4 µM
O=S(=O)(Nc1cccc2cccnc12)c1cccs1 | 3.6 µM
O=S(=O)(Nc1cccc2cccnc12)c1ccc(Cl)s1 | 1.3 µM
Cc1ccc2cccc(NS(=O)(=O)c3ccccc3N)c2n1 | 2.8 µM
Cc1ccc2cccc(NS(=O)(=O)c3ccc(C(F)(F)F)cc3[N+](=O)[O-])c2n1 | 1.1 µM
COc1cc(NS(=O)(=O)c2ccc(C)cc2[N+](=O)[O-])c2ncccc2c1 | 2.1 µM
COc1cnc2c3c(ccc2c1)-c1ccccc1S(=O)(=O)N3 | 2.5 µM
O=[N+]([O-])c1ccccc1S(=O)(=O)Nc1cccc2cccnc12 | 3.2 µM
O=S1(=O)Nc2c(ccc3cccnc23)-c2cc(F)ccc21 | 1.7 µM
COc1ccc(S(=O)(=O)Nc2cccc3ccc(C)nc23)c([N+](=O)[O-])c1 | 1 µM
Cc1ccc2c(c1)-c1ccc3cccnc3c1NS2(=O)=O | 0.6 µM

SMILES | IC50
O=S1(=O)Nc2c(ccc3cccnc23)-c2cc(C(F)(F)F)ccc21 | 1 µM
COc1cc2cccnc2c2c1-c1cc(C)ccc1S(=O)(=O)N2 | 1.2 µM
COc1ccc2c(c1)-c1ccc3ccc(C)nc3c1NS2(=O)=O | 2.5 µM
Cc1ccc2ccc3c(c2n1)NS(=O)(=O)c1ccc(C(F)(F)F)cc1-3 | 1.2 µM
COc1cc2ccc(C)nc2c2c1-c1cc(C)ccc1S(=O)(=O)N2 | 0.9 µM
CC(C)c1cccc(C(C)C)c1N1C(=O)c2ccc(O)cc2C1=O | 0.53 µM
O=S(=O)(Nc1cccc2cccnc12)c1ccc(Br)s1 | 1.1 µM
Cc1ccc2cccc(NS(=O)(=O)c3cccc([N+](=O)[O-])c3)c2n1 | 0.9 µM
Cc1ccc2ccc3c(c2n1)NS(=O)(=O)c1ccc(O)cc1-3 | 10 µM
COc1ccc2c(c1)-c1ccc3cccnc3c1NS2(=O)=O | 1 µM
O=[N+]([O-])c1cc(C(F)(F)F)ccc1S(=O)(=O)Nc1cccc2cccnc12 | 3.7 µM
c1ccc(CCCNc2ncnc3ccccc23)cc1 | 2.38 µM
O=S1(=O)Nc2c(ccc3cccnc23)-c2ccccc21 | 1 µM
Cc1ccc([N+](=O)[O-])cc1S(=O)(=O)Nc1cccc2cccnc12 | 1.6 µM
O=S1(=O)Nc2c(ccc3cccnc23)-c2cc(Cl)ccc21 | 1.1 µM
Nc1ccc2ncnc(NCCc3ccc(Oc4ccccc4)cc3)c2c1 | 0.011 µM
O=[N+]([O-])c1ccc(S(=O)(=O)Nc2cccc3cccnc23)cc1 | 1.5 µM
Nc1ccc2ncnc(NCCN3CCOCC3)c2c1 | > 10 µM
Nc1ccc2ncnc(NCCC3CCCCC3)c2c1 | 0.685 µM
Clc1ccc(Nc2ncnc3ccccc23)cc1 | > 10 µM
COc1ccccc1CCNc1ncnc2ccc(N)cc12 | 0.155 µM

SMILES | IC50
Clc1ccc(CCNc2nccc3ccccc23)cc1 | > 10 µM
Nc1ccc2ncnc(NCCc3ccc(OCc4ccccn4)cc3)c2c1 [listing 1 of 2 here] | 0.012 µM
Nc1ccc2ncnc(NCCN3CCCCC3)c2c1 | > 10 µM
Clc1ccc(CCNc2ccnc3ccccc23)cc1 | 1.39 µM
Nc1ccc2ncnc(NCCc3ccc(OCc4ccccn4)cc3)c2c1 [listing 2 of 2 here] | 0.014 µM
Clc1ccc(CCCNc2ncnc3ccccc23)cc1 | 1.4 µM
COC(=O)C1[C@@H](O)[C@@]2(O)c3c(cc4c(c3OC)OCO4)O[C@@]2(c2ccc(OC)cc2)[C@@H]1c1ccccc1 (some centres not stated) | 0.243 µM
Nc1ccc2ncnc(NCCc3ccc(OCc4ccc5ccccc5n4)cc3)c2c1 | 0.093 µM
Clc1ccc(CCNc2ncnc3ccc(Oc4ccccc4)cc23)cc1 | 7.34 µM
Nc1cc2c(NCCc3ccc(Cl)cc3)ncnc2cc1Cl | 0.429 µM
Clc1ccc(CCNc2nncc3ccccc23)cc1 | > 10 µM
Nc1ccc2ncnc(NCCN3CCCC3)c2c1 | 3.69 µM
Nc1ccc2ncnc(NCCc3ccccc3Cl)c2c1 | 0.254 µM
COC(=O)C1[C@@H](O)[C@@]2(O)c3c(OC)cc(OC)cc3O[C@@]2(c2ccc3c(c2)OCO3)[C@@H]1c1ccccc1 (some centres not stated) | 0.319 µM
COC(=O)C1[C@@H](O)[C@@]2(O)c3c(OC)cc(OC)cc3O[C@@]2(c2ccc(OC)cc2)[C@@H]1c1ccccc1 (some centres not stated) | 0.197 µM
Cc1csc2ncnc(NC3Cc4ccc(C(=O)N5CCOCC5)cc4C3)c12 (configuration not stated) | 0.038 µM
CC(C)c1cccc(C(C)C)c1N1C(=O)c2cccc(O)c2C1=O | 4.95 µM
CC(C)c1cccc(C(C)C)c1N1C(=O)c2ccc(N)cc2C1=O | 29.5 µM
COc1ccc([C@@]23Oc4cc(OC)cc(OC)c4[C@]2(O)[C@H](O)[C@H](C(N)=O)[C@H]3c2ccccc2)cc1 [DIDESMETHYLROCAGLAMIDE] | 0.044 µM
CC(C)C[C@@H](C=O)NC(=O)[C@H](CC(C)C)NC(=O)[C@H](CC(C)C)NC(=O)OCc1ccccc1 [MG-132] (Cbz-Leu-Leu-Leu-aldehyde) | 0.715 µM
COc1ccc([C@@]23Oc4cc(OC)cc(OC)c4[C@]2(O)[C@H](O)C[C@H]3c2ccccc2)cc1 [ROCAGLAOL] | 0.499 µM

Next, values leading:

IC50 | SMILES
0.313 µM | Oc1ccc2ncnc(NCCc3ccc(Cl)cc3)c2c1
1.52 µM | O=[N+]([O-])c1ccc2ncnc(NCCc3ccc(Cl)cc3)c2c1
0.344 µM | Clc1ccc(CCNc2ncnc3ccc(Cl)cc23)cc1
0.176 µM | Nc1ccc2ncnc(NCCc3ccc(Cl)cc3)c2c1
2.2 µM | Nc1ccc2c(NCCc3ccc(Cl)cc3)ncnc2c1
0.851 µM | Clc1ccc(CCNc2ncnc3ccc(Br)cc23)cc1
0.73 µM | Cc1ccc2ncnc(NCCc3ccc(Cl)cc3)c2c1
8.27 µM | Nc1ccc2ncnc(NCCc3cccnc3)c2c1
3.65 µM | Nc1ccc2ncnc(NCCc3ccc(O)cc3)c2c1
0.04 µM | C#CCOc1ccc(CCNc2ncnc3ccc(N)cc23)cc1
0.021 µM | CCOc1ccc(CCNc2ncnc3ccc(N)cc23)cc1
0.012 µM | C=CCOc1ccc(CCNc2ncnc3ccc(N)cc23)cc1
0.02 µM | CCCOc1ccc(CCNc2ncnc3ccc(N)cc23)cc1
0.04 µM | CC(C)Oc1ccc(CCNc2ncnc3ccc(N)cc23)cc1
0.21 µM | Cc1ccc(CCNc2ncnc3ccc(N)cc23)cc1
0.002 µM | CCCCCOc1ccc(CCNc2ncnc3ccc(N)cc23)cc1
0.207 µM | Nc1ccc2ncnc(NCCc3ccc(Br)cc3)c2c1
0.004 µM | CCCCCCOc1ccc(CCNc2ncnc3ccc(N)cc23)cc1
0.389 µM | Nc1ccc2ncnc(NCCc3cccc(Cl)c3)c2c1
0.574 µM | Nc1ccc2ncnc(NCCc3ccc(F)cc3)c2c1
0.09 µM | COc1ccc(CCNc2ncnc3ccc(N)cc23)cc1
4.56 µM | CC(=O)Nc1ccc2ncnc(NCCc3ccc(Cl)cc3)c2c1
7.33 µM | NC(=O)c1ccc(CCNc2ncnc3ccc(N)cc23)cc1
0.21 µM | COc1cccc(CCNc2ncnc3ccc(N)cc23)c1
5.98 µM | CC(=O)Nc1ccc(CCNc2ncnc3ccc(N)cc23)cc1
0.311 µM | Nc1ccc2ncnc(NCCc3ccccc3)c2c1
> 10 µM | Nc1ccc2ncnc(NCCc3ccc(S(N)(=O)=O)cc3)c2c1
0.011 µM | CCCCOc1ccc(CCNc2ncnc3ccc(N)cc23)cc1
2.59 µM | CN(C)C(=O)c1ccc(CCNc2ncnc3ccc(N)cc23)cc1
